From patent US10851386B2, “Plants transformed to express a phosphite dehydrogenase enzyme capable of metabolizing phosphite to reduce competition from weeds” (Centro de Investigación y de Estudios Avanzados del …, priority 2008, dated 2020)

Legend:
parental (WT) line Col-0 = test: Growth on liquid growth medium with phosphite or phosphate as phosphorus source; format: in vivo, Arabidopsis thaliana
Experimental: (§1) The parental line and the PTXD-3 and PTXD-5 transgenic lines were tested for the ability to grow on a liquid medium, with or without inorganic phosphate (Pi) as the source of phosphorus. Seeds from the parental and transgenic lines were germinated in liquid media and tested for growth.
(§2) In FIG. 7, the absence or presence of sustained plant growth (beyond the germination stage) is identified with a minus (−) or a plus (+) symbol, respectively. […] Therefore, the transgenic lines acquired the ability to metabolize phosphite as a phosphorus source to support plant growth.

[1] = test system: ptxD transgenic (PTXD) plants; test: Growth and dry weight on sand:vermiculite substrate with phosphate or phosphite; format: in vivo, Arabidopsis thaliana; conditions: sand:vermiculite (1:1)
Experimental: (§3) FIGS. 10 and 11 show photographs of parental and ptxD transgenic plants distributed according to FIG. 9 and tested for growth on a substrate containing added phosphate (Pi) (FIG. 10) or phosphite (Phi) (FIG. 11) as the source of phosphorus. […] The plants here and in FIG. 11 were grown in a sand:vermiculite mixture (1:1) and received water and nutrient solutions (lacking any other phosphorus source except as previously indicated) periodically.
(§4) The dry weight of three plants cultivated in sand:vermiculite (1:1) as substrate is plotted in the figure with respect to each particular plant line and source(s) of phosphorus.

parental (WT) plants = test: as above; format: in vivo, Arabidopsis thaliana; conditions: sand:vermiculite (1:1)
Experimental: as §3, §4

ptxD transgenic plants = test: Growth or selection in media containing only phosphite as external source of phosphorus; format: in vivo, Arabidopsis thaliana
Experimental: (§5) The transformed Agrobacterium clone was used to transform Arabidopsis thaliana (ecotype Col-0) (generally described herein as “wild-type” (WT)) using a modified floral dip method. Transformed T0 progeny were selected using phosphinothricin resistance. In particular, screening was performed with MS 0.1× media containing phosphinothricin (20 mg/L). Twenty-eight resistant lines were identified through PCR amplification of the ptxD gene.
(§6) The ptxD transgenic plants were tested for their ability to grow in media containing only phosphite (e.g., about 0.1 to 5 mM) as an external source of phosphorus.
The ptxD expression construct also was used to provide a selectable marker for selection of transgenic plants with modified phosphorus metabolism. Wild-type Col-0 plants were transformed using Agrobacterium containing the ptxD expression construct. T0 progeny (seeds) were plated on a medium with phosphite (5 mM) as the source of phosphorus.

[2] = test system: control tobacco seedlings; test: Tobacco seedling growth in MS media with phosphate or phosphite as only phosphorus source; format: in vivo, Nicotiana tabacum
Experimental: (§7) Nicotiana tabacum was transformed with the expression construct described in Example 1. In particular, tobacco leaf explants were co-cultivated with an Agrobacterium strain harboring a 35S::PtxD construct (Example 1) within its T-DNA. Leaf discs were allowed to regenerate in MS media containing 1 mM phosphite as the only phosphorus source. Plants regenerated from these leaf discs on phosphite-containing media were transferred to soil and allowed to set seed under greenhouse conditions.
(§8) The presence or absence of growth (after depletion of seed-furnished phosphorus) is indicated by a plus (+) or a minus (−) symbol, respectively.
(§9) Seedlings were germinated and maintained in MS media supplemented with 1 mM phosphite as the only phosphorus source for 25 days. The seedlings then were transferred to tissue culture flasks containing MS with 1 mM phosphite as the only phosphorus source and were allowed to grow for 25 additional days in a plant growth chamber at 23° C., with a photoperiod of 18 h light, followed by 6 h darkness for each 24-hour period.

[3] = test system: transgenic tobacco homozygous for the 35S::PtxD gene; test: as above; format: in vivo, Nicotiana tabacum; conditions: for seedling growth: MS media, 25 days after germination, FIG. 13
Experimental: as §7, §8, §9

[4] = test system: Control plants (wild-type Col-0); test: Growth in media containing only phosphite as external source of phosphorus; format: in vivo, Arabidopsis thaliana; conditions: only phosphite (about 0.1 to 5 mM) as external source of phosphorus
Experimental: as §5, §6

[5] = test system: transgenic PTXD-3 and PTXD-5 lines; test: Growth on liquid growth medium with phosphite or phosphate as phosphorus source; format: in vivo, Arabidopsis thaliana
Experimental: Two transgenic Arabidopsis lines, dubbed PTXD-3 and PTXD-5, were prepared and isolated as described in Example 1. Each line is homozygous for the ptxD expression construct of Example 1.
as §1, §2

[6] = test system: transgenic plants (PTXD-3 and PTXD-5); test: Reduction of total phosphorus in growth medium containing phosphite (vanadium-molybdate method); format: in vivo, Arabidopsis thaliana; conditions: initially 50, 100 or 1000 μM phosphite; 45 days; 100 plants per container; FIG. 8
Source text: Wild type and the two transgenic Arabidopsis lines, PTXD-3 and PTXD-5, were germinated and cultivated in one-liter plastic containers with 0.1× Murashige and Skoog liquid medium lacking phosphate and supplemented with either 50, 100 or 1000 micromolar phosphorous acid (H3PO3). One hundred plants per plastic container were allowed to grow for 45 days in the plastic container in a growth chamber with a 16:8 light:dark cycle for each 24-hour period. The plants were covered to avoid moisture loss. A double layer of plastic mesh was placed where seeds were sown to germinate on top of liquid media in each plastic container.
After 45 days of growth the total phosphorus content was determined in the liquid media, after removing the plants, using a vanadium-molybdate method. Briefly, 5 mL of liquid media from each sample was digested with nitric acid:perchloric acid (HNO3:HClO4; 5:1). Then, the phosphorus content was determined with a colorimetric method based on the addition of a solution of ammonium molybdate (20 mM) and ammonium metavanadate (10 mM) in 70% perchloric acid. After a 20-minute incubation at room temperature, the absorbance at 400 nm was measured with a spectrophotometer.
In FIG. 8, the first three bars labeled as “initial” represent the initial concentration of total phosphorus in the media without plants. […]

[7] = 50, 100, and 1000 μM inorganic phosphite as phosphorus source, FIG. 7
[8] = MS with 1 mM phosphite as only phosphorus source, 25 days plus 25 additional days, FIG. 14
[9] = 50 μM inorganic phosphate, FIG. 7

SMILES	growth (parental (WT) line Col-0; [7])	growth (dry weight of three plants) on phosphite relative to phosphate ([1]; FIG. 12)	sustained growth on substrate ([1]; added phosphite (Phi), FIG. 11)	sustained growth on substrate (parental (WT) plants; added phosphite (Phi), FIG. 11)	growth (dry weight of three plants) (parental (WT) plants; phosphite as the source of phosphorus, FIG. 12)	growth of T0 progeny relative to wild type plants (ptxD transgenic plants; medium with phosphite (5 mM) as the source of phosphorus, FIG. 6)	growth (ptxD transgenic plants; only phosphite (about 0.1 to 5 mM) as external source of phosphorus)	seedling growth ([2]; MS media, 1 mM Phi as only phosphorus source, 25 days after germination, FIG. 13)	growth and development [2, 8]	seedling growth ([3]; 1 mM Phi as only phosphorus source)	growth [3, 8]	growth [4]	growth [5, 7]	decrease of phosphorus content in the media (removal of phosphite) [6]	growth (parental (WT) line Col-0; [9])	growth (parental (WT) line Col-0; 50, 100, and 1000 μM phosphate)	seedling growth ([3]; 1 mM Pi as only phosphorus source)	growth [5, 9]	growth ([5]; 50, 100, and 1000 μM phosphate)
OP(O)O [phosphite, phosphorous acid (H3PO3)]	but not the parental line	grew similarly or better	only the transgenic plants were capable of sustained growth	only the transgenic plants were capable of sustained growth	did not grow substantially	substantial growth advantage	grew efficiently	unable to sustain normal growth	unable to use phosphite	sustained growth	able to sustain rapid growth	no substantial growth	grew efficiently	more than 50%	–	–	–	–	–
O=P(O)(O)O [phosphate, phosphoric acid (H3PO4)]	–	–	–	–	–	–	–	–	–	–	–	–	–	–	grew efficiently	grew efficiently	sustained growth	grew efficiently	grew efficiently
